Results on 1 compound are retold here after US11261210B2, “Glycosylated antitumor ether lipids as novel cancer stem cell cytotoxic agents” (UNIVERSITY OF MANITOBA, priority 2012, dated 2022).

Structures are written as SMILES.

In one series the test system is cancer stem cells. Nature of the series: Tumorsphere formation by freshly sorted cancer stem cells. The settings on record: added to freshly sorted cancer stem cells, 10 μM and above, 6 days. The format is cell-based, human. The text has this:
Breast cancer stem cell enriched cell population was obtained by staining breast cancer cell lines BT-474 and JIMT-1 for aldehyde dehydrogenase 1 (ALDH1) using the assay kit from Stem Cell Technologies (Vancouver BC, Canada) according to the instructions of the manufacturer with the appropriate controls. BT-474 is a ductal carcinoma cell line (Lasfargues E Y, Coutinho W G, Dion A S (1979) A human breast tumor cell line (BT-474) that supports mouse mammary tumor virus replication. In Vitro 15, 723-729) while JIMT-1 is a carcinoma cell line that is resistant to herceptin (Tanner M, Kapanen A J, Junttila T, Raheem O, Grenman S, Elo J, Elenius K, Isola J (2004). Characterization of a novel cell line established from a patient with herceptin-resistant breast cancer. Mol Cancer Ther 3, 1585-1592). Following the staining, the cells stained for ALDH1 were sorted from the bulk population by flow cytometry on a 4 laser MoFloXPP high speed/pressure cell sorter. The cells were pelleted by centrifugation, resuspended in supplemented Mammocult medium (Stem Cell Technologies) and dispersed into ultra-low adhesive 6-well plates or 35 mm dishes for 7 days to allow the formation of spheroids (mammospheres). After 7 days, the spheres were separated from single cells (dead non-stem cells) by sieving the contents of the well through a […] nylon cell strainer (BD Falcon). The spheres retained in the sieve are washed with Hanks buffer and subsequently trypsinised to obtain a single cell suspension of cancer stem cells. The cell numbers were determined with a Coulter ZM counter and the cells were seeded into the appropriate low adhesion tissue culture ware for various studies.
AEL solutions in ethanol were diluted into supplemented mammocult medium generally at twice the desired final concentration. A volume equal to that in the wells was added to dilute the drug to the desired concentration in each well. Subsequently any further addition of drug to the wells, utilized AEL solution prepared at the desired concentration. […]

Another series has as its system BT-474 cancer stem cells. Put plainly: BT-474 cancer stem cell spheroid formation. The format is cell-based, human. The conditions noted are these: BT474 cancer stem cells, FIG. 1B. As to the method:
FIG. 1. A. Effect of β-C-Gln (β-AC1) on BT-474 cancer stem cell spheroid formation. BT-474 cancer stem cells were obtained by staining BT474 cells for ALDH1 and sorting the stained from unstained cells by flow cytometry. The ALDH1 stained cells were grown in ultra-low adhesion 6-well plates in mammocult medium for 7 days. The spheroids were isolated and trypsinised to generate single cells. The cells were then seeded for 2 days in ultra-low adhesion 6-well plates, and subsequently incubated in the absence or presence of C-Gln for up to 12 days. The media was replenished after 6 days. B. Effect of β-O-Gln (β-AO1), α-O-Gln (α-AO1), or ET-18-OCH3 on BT-474 cancer stem cell spheroid formation.
Breast cancer stem cell enriched cell population was obtained by staining breast cancer cell lines BT-474 and JIMT-1 for aldehyde dehydrogenase 1 (ALDH1) using the assay kit from Stem Cell Technologies (Vancouver BC, Canada) according to the instructions of the manufacturer with the appropriate controls. […] The cell numbers were determined with a Coulter ZM counter and the cells were seeded into the appropriate low adhesion tissue culture ware for various studies. […]

In the next series the test system is BT474 cancer stem cells. Put plainly: Trypan blue dye exclusion viability of BT474 cancer stem cells. It is filed as cell-based, human. The conditions noted are these: BT474 cancer stem cells incubated with compound. As to the method: Trypan blue dye exclusion assay using the TC10 automated cell counter (BioRad) was also used for some studies.
We investigated the effects of the GAELs and the ALPET-18-OCH3 on the ability of the cancer stem cells to form tumorspheres. […] This was a concentration dependent event and at concentrations greater than 10 μM spheroid formation was completely disrupted.

Series [1] concerns JIMT-1 stem cell spheroids. Put plainly: Morphology of JIMT-1 stem cell spheroids. The format is cell-based, human. How it is done: FIG. 7. A. Effect of β-O-Gln, β-C-Gln or ET-18-OCH3 on morphology of JIMT-1 stem cell spheroids. B. Effect of β-O-Gln, α-O-Gln or ET-18-OCH3 on morphology of JIMT-1 stem cell spheroids. JIMT-1 cancer stem cells were grown for 7 days in ultra low adhesion 6 well plates. The tumorspheres formed were harvested, trypsinised and cell numbers were determined. Equal numbers of cells were dispersed into 48-well non-treated plates in mammocult medium and incubated in a CO2 incubator under static conditions. After spheres were formed, O-Gln, C-Gln or ET-18-OCH3 were added (0, 10, 20 and 30 μM) and incubation was for a total of 6 days with media supplementation after 3 days. Images for FIG. 7A were taken at day 0 and after 72 h following addition of the compounds. Images for FIG. 7B were taken after 6 days incubation with the compounds.
The above studies were repeated with JIMT-1 spheroids.

In series [2] the test system is JIMT1 stem cell tumorspheres. Nature of the series: Viability of JIMT1 stem cell tumorspheres (MTS assay). The format is cell-based, human. The conditions noted are these: 6 days. How it is done: FIG. 8. Effect of β-O-Gln, α-O-Gln, β-C-Gln and ET-18-OCH3 on the viability of JIMT1 stem cell tumorspheres. BT-474 cancer stem cells were grown for 7 days in ultra low adhesion 6-well plates. The tumorspheres formed were harvested, trypsinised and cell numbers were determined. Equal numbers of cells were dispersed into 48-well non-treated plates in mammocult medium and incubation was under static conditions. Wells with only medium but no cells were treated in an identical manner to serve as blanks. After spheres were formed, O-Gln, C-Gln or ET-18-OCH3 (0, 10, 20, 30 μM) were added and incubation was for a total of 6 days. At the end of the incubation, the MTS reagent was added to each well and the plates were mixed in a nutator in a 5% CO2 incubator for 4 h. The absorbance of each well was read at 470 nm. The results are the means±standard deviation of 4 independent determinations.
Cell viability assay: Cell viability was determined by the Cell Titre 96 Aqueous One solution proliferation assay ((MTS assay; Promega) according to the instructions of the manufacturer.
The viability of cells in spheroids incubated with 20 or 30 μM ET-18-OCH3 was between 30-40% of controls.

The conditions of series [3]: cells with a functioning apoptotic pathway; cited from earlier work.

Take `CCCCCCCCCCCCCCCCOC[C@H](CO[C@@H]1O[C@H](CO)[C@@H](O)[C@H](O)[C@H]1N)OC` [β-O-Gln, 1-O-hexadecyl-2-O-methyl-3-O-(2′-amino-2′-deoxy-β-D-glucopyranosyl)-sn-glycerol]: the spheroid formation result in the series on cancer stem cells and in the series with BT-474 cancer stem cells was “unable to form spheroids” throughout. For the same compound, the “viability (trypan dye exclusion)” value in the series with BT474 cancer stem cells is recorded as “not viable”. In addition, the “spheroid morphology and compactness” value in series [1] (10-30 μM, after 3 days, FIG. 7A) was “profound effect on the morphology and compactness”. In addition, the spheroid integrity result in series [1] (6 days, FIG. 7B) is listed as “complete disintegration of the spheroids”. For the same compound, the values for the loss of viability in series [2] (10 μM) and in series [2] (20 or 30 μM) were 90% and “Complete loss of viability”, respectively. For the same compound, in series [3], the “caspase 3 or 9 activation during cell death” value is “without activation of caspase 3 or 9”.
